The molecules below were run on NCI-H226 (assay: 72H TEAD Proliferation Assay (Cell Titer Glo 2.0)). Conditions: CTG 2.0, cell line not given (NCI-H226 responsive, NCI-H28 non-responsive).
Format: cell-based
Description: 72H TEAD Proliferation Assay.
The effect of TEAD inhibition on cell proliferation was assayed using Cell Titer Glo (CTG) 2.0 to measure response in mesothelioma cell lines NCI-H226 (ATCC, #CRL-5826) and NCI-H28 (ATCC, #CRL-5820).
The 72H TEAD Proliferation assay utilizes Cell Titer-Glo 2.0 (Promega, #G9243) to measure the proliferation of cells in the presence or absence of compound. Cell Titer-Glo 2.0 determines the amount of viable cells by quantifying ATP (an indication of metabolically active cells). It utilizes the conversion of Luciferin to Oxyluciferin and a luminescent signal with the use of ATP to report the quantity of viable cells in culture. Within cells that are continually growing, ATP is being synthesized to meet their metabolic demands, meanwhile the opposite is true for cells that are dying or slowing down their proliferation and either no longer using ATP or are using less, respectively. The NF2-deficient NCI-H226 has been genetically validated as a cell line that is sensitive to TEAD inhibition. The NF2-wild type NCI-H28 has been genetically validated as a cell line that is not sensitive to TEAD inhibition and grows independently of TEAD activity.
Compounds were screened against the responsive NCI-H226 cell line to assess the compounds' ability to inhibit TEAD and cell growth. Compounds were also screened against the non-responsive NCI-H28 cell line to ascertain whether the inhibition of cell growth was due to inhibition of the target TEAD or whether the inhibition was due to off-target cytotoxicity.
• 1) Assay ready plates (ARPs) were prepared by Echo acoustic liquid handler. […] After CTG addition, plates were placed on shaker at 800 RPM for 15 minutes at room temperature and kept in the dark. Luminescence was measured using EnVision multilabel plate reader with ultra-sensitive detection module. • 9) Data Analysis: First background luminescence (no CTG wells) was subtracted from luminescence reading of all wells, then TO luminescence was subtracted from T72 luminescence. To compare anti-proliferative effect of compounds, GI50 was obtained by fitting dose response curves with nonlinear regression curve fit.

`CC(C)(C)c1ccc(-c2nc3cc(S(C)(=N)=O)ccc3n3cccc23)cc1` (single isomer, unassigned) [I-208, (4-(4-(tert-Butyl)phenyl)pyrrolo[1,2-a]quinoxalin-7-yl)(imino)(methyl)-16-sulfanone] and `COc1cc(-c2ccc(C(F)(F)F)cc2)nc2cc(C(=O)N3CCC3CO)ccc12` (single isomer, unassigned) [I-373, (2-(hydroxymethyl)azetidin-1-yl) (4-methoxy-2-(4-(trifluoromethyl)phenyl)quinolin-7-yl)methanone] cannot be ordered by GI50: 1 to 5 µM for the first, no more than 1 µM for the second.

In the case of `CC(C)(C)c1ccc(-c2nc3cc(S(C)(=N)=O)ccc3n3cccc23)cc1` (single isomer, unassigned) [I-209, (4-(4-(tert-Butyl)phenyl)pyrrolo[1,2-a]quinoxalin-7-yl)(imino)(methyl)-16-sulfanone], the GI50 is reported as 5 to 10 µM.

Same assay, conditions: Homo sapiens, NCI-H226, 72 h, CTG 2.0, cell line not given (NCI-H226 responsive, NCI-H28 non-responsive)

`O=C(O)c1ccc2c(c1)nc(OC1CCC(C(F)(F)F)CC1)c1cccn12` (mixture of isomers) [I-127, 4-((4-(Trifluoromethyl)cyclohexyl)oxy)pyrrolo[1,2-a]quinoxaline-7-carboxylic acid] and `O=C(O)c1ccc2c(c1)nc(NC1CCC(C(F)(F)F)CC1)c1cccn12` (stereo not drawn) [I-18, 4-((4-(Trifluoromethyl)cyclohexyl)amino)pyrrolo[1,2-a]quinoxaline-7-carboxylic acid] fall in the same range of GI50: 1 to 5 µM for the first, 1 to 5 µM for the second.

`COc1cc(-c2ccc(C(F)(F)F)cc2)nc2cc(C(=O)NC(CO)C3CCOCC3)ccc12` (single isomer, unassigned) [I-368, N-(2-hydroxy-1-(tetrahydro-2H-pyran-4-yl)ethyl)-4-methoxy-2-(4-(trifluoromethyl)phenyl)quinoline-7-carboxamide] and `COc1cc(-c2ccc(C(F)(F)F)cc2)nc2cc(C(=O)N3CCC3CO)ccc12` (single isomer, unassigned) [I-372, (2-(hydroxymethyl)azetidin-1-yl) (4-methoxy-2-(4-(trifluoromethyl)phenyl)quinolin-7-yl)methanone] fall in the same range of GI50: 1 to 5 µM for the first, 1 to 5 µM for the second.

`CC(C)(C)c1ccc(CCn2ccc3cc(C(=O)O)ccc32)cc1` [Compound I-161] and `COC(=O)c1ccc2c(c1)nc(-c1ccc(C(C)(C)C)cc1)c1cccn12` [Compound I-164] cannot be ordered by GI50: greater than 10 µM for the first, greater than 10 µM for the second.

First: O=C(O)c1ccc2c(c1)nc(NCCCC(F)(F)F)c1cccn12 [I-1, 4-((4,4,4-Trifluorobutyl)amino) pyrrolo[1,2-a]quinoxaline-7-carboxylic acid]
Second: O=C(O)c1ccc2c(c1)nc(NC1CCCC(C(F)(F)F)C1)c1cccn12 (stereo not drawn) [I-19, 4-((3-(Trifluoromethyl)cyclohexyl)amino)pyrrolo[1,2-a]quinoxaline-7-carboxylic acid]
The GI50 of the first is higher: greater than 10 µM for the first, 1 to 5 µM for the second.

`O=C(O)c1ccc2c(c1)nc(N1CCCCC1)c1cccn12` [I-2, 4-(Piperidin-1-yl)pyrrolo[1,2-a]quinoxaline-7-carboxylic acid] and `O=C(O)c1ccc2c(c1)nc(N1CCCC1)c1cccn12` [I-15, 4-(Pyrrolidin-1-yl)pyrrolo[1,2-a]quinoxaline-7-carboxylic acid] cannot be ordered by GI50: greater than 10 µM for the first, greater than 10 µM for the second.

`CC1(C)CCN(c2nc3cc(C(=O)O)ccc3n3cccc23)CC1` [I-3, 4-(4,4-Dimethylpiperidin-1-yl)pyrrolo[1,2-a]quinoxaline-7-carboxylic acid] and `O=C(O)c1ccc2c(c1)nc(N1CCC3(CC1)CC3)c1cccn12` [I-4, 4-(6-Azaspiro[2.5]octan-6-yl)pyrrolo[1,2-a]quinoxaline-7-carboxylic acid] cannot be ordered by GI50: 1 to 5 µM for the first, no more than 1 µM for the second.

`O=C(O)c1ccc2c(c1)nc(N1CCCC(F)(F)C1)c1cccn12` [I-5, 4-(3,3-Difluoropiperidin-1-yl)pyrrolo[1,2-a]quinoxaline-7-carboxylic acid] and `O=C(O)c1ccc2c(c1)nc(N1CCC(F)(F)C1)c1cccn12` [I-11, 4-(3,3-Difluoropyrrolidin-1-yl)pyrrolo[1,2-a]quinoxaline-7-carboxylic acid] cannot be ordered by GI50: greater than 10 µM for the first, greater than 10 µM for the second.

`O=C(O)c1ccc2c(c1)nc(N1CCC3(CCC3)CC1)c1cccn12` [I-6, 4-(7-Azaspiro[3.5]nonan-7-yl)pyrrolo[1,2-a]quinoxaline-7-carboxylic acid] and `O=C(O)c1ccc2c(c1)nc(N1CCC3(CCCC3)CC1)c1cccn12` [I-8, 4-(8-Azaspiro[4.5]decan-8-yl)pyrrolo[1,2-a]quinoxaline-7-carboxylic acid] cannot be ordered by GI50: no more than 1 µM for the first, no more than 1 µM for the second.

First: O=C(O)c1ccc2c(c1)nc(N1CCOCC1)c1cccn12 [I-7, 4-Morpholinopyrrolo[1,2-a]quinoxaline-7-carboxylic acid]
Second: CC1CCN(c2nc3cc(C(=O)O)ccc3n3cccc23)CC1 [I-16, 4-(4-Methylpiperidin-1-yl)pyrrolo[1,2-a]quinoxaline-7-carboxylic acid]
The GI50 of the first is higher: greater than 10 µM for the first, 1 to 5 µM for the second.

`O=C(O)c1ccc2c(c1)nc(N1CCC3(CCCC3)C1)c1cccn12` [I-9, 4-(2-Azaspiro[4.4]nonan-2-yl)pyrrolo[1,2-a]quinoxaline-7-carboxylic acid] and `O=C(O)c1ccc2c(c1)nc(N1CCC3(CCCCC3)C1)c1cccn12` [I-28, 4-(2-Azaspiro [4.5]decan-2-yl) pyrrolo[1,2-a] quinoxaline-7-carboxylic acid] fall in the same range of GI50: 1 to 5 µM for the first, 1 to 5 µM for the second.

First: O=C(O)c1ccc2c(c1)nc(N1CCC(C(F)(F)F)C1)c1cccn12 (stereo not drawn) [I-10, 4-(3-(Trifluoromethyl)pyrrolidin-1-yl)pyrrolo[1,2-a]quinoxaline-7-carboxylic acid]
Second: CC(F)(F)C1CCN(c2nc3cc(C(=O)O)ccc3n3cccc23)CC1 [I-14, 4-(4-(1,1-Difluoroethyl)piperidin-1-yl)pyrrolo[1,2-a]quinoxaline-7-carboxylic acid]
The GI50 of the first is lower: 1 to 5 µM for the first, greater than 10 µM for the second.

`CC(C)C1CCN(c2nc3cc(C(=O)O)ccc3n3cccc23)CC1` [I-12, 4-(4-Isopropylpiperidin-1-yl)pyrrolo[1,2-a]quinoxaline-7-carboxylic acid] and `O=C(O)c1ccc2c(c1)nc(N1CCC(C(F)F)CC1)c1cccn12` [I-17, 4-(4-(Difluoromethyl)piperidin-1-yl)pyrrolo[1,2-a]quinoxaline-7-carboxylic acid] fall in the same range of GI50: 1 to 5 µM for the first, 1 to 5 µM for the second.

`O=C(O)c1ccc2c(c1)nc(N1CCC(c3ccccc3)CC1)c1cccn12` [I-13, 4-(4-Phenylpiperidin-1-yl)pyrrolo[1,2-a]quinoxaline-7-carboxylic acid] and `O=C(O)c1ccc2c(c1)nc(N1CCc3ccccc3C1)c1cccn12` [I-21, 4-(3,4-Dihydroisoquinolin-2(1H)-yl)pyrrolo[1,2-a]quinoxaline-7-carboxylic acid] cannot be ordered by GI50: greater than 10 µM for the first, greater than 10 µM for the second.

`CC(C)(C)N1CCN(c2nc3cc(C(=O)O)ccc3n3cccc23)CC1` [I-20, 4-(4-(tert-Butyl)piperazin-1-yl)pyrrolo[1,2-a]quinoxaline-7-carboxylic acid] and `O=C(O)c1ccc2c(c1)nc(N1CCC3(CC1)COC3)c1cccn12` [I-29, 4-(2-Oxa-7-azaspiro[3.5]nonan-7-yl)pyrrolo[1,2-a]quinoxaline-7-carboxylic acid] cannot be ordered by GI50: greater than 10 µM for the first, greater than 10 µM for the second.

First: CC(C)C12CC(Nc3nc4cc(C(=O)O)ccc4n4cccc34)(C1)C2 [I-22, 4-((3-Isopropylbicyclo[1.1.1]pentan-1-yl)amino)pyrrolo[1,2-a]quinoxaline-7-carboxylic acid]
Second: CC1(C)C2CN(c3nc4cc(C(=O)O)ccc4n4cccc34)CC21 (stereo not drawn) [I-31, 4-(6,6-Dimethyl-3-azabicyclo[3.1.0]hexan-3-yl)pyrrolo[1,2-a]quinoxaline-7-carboxylic acid]
The GI50 of the first is lower: 1 to 5 µM for the first, greater than 10 µM for the second.

`O=C(O)c1ccc2c(c1)nc(Oc1ccc(C(F)(F)F)cc1)c1cccn12` [I-23, 4-(4-(Trifluoromethyl)phenoxy) pyrrolo[1,2-a] quinoxaline-7-carboxylic acid] and `O=C(O)c1ccc2c(c1)nc(Oc1cccc(C(F)(F)F)c1)c1cccn12` [I-24, 4-(3-(Trifluoromethyl)phenoxy) pyrrolo[1,2-a] quinoxaline-7-carboxylic acid] cannot be ordered by GI50: no more than 1 µM for the first, 1 to 5 µM for the second.

First: O=C(O)c1ccc2c(c1)nc(N1CCC3(CCCCCC3)C1)c1cccn12 [I-25, 4-(2-Azaspiro[4.6]undecan-2-yl)pyrrolo[1,2-a]quinoxaline-7-carboxylic acid]
Second: O=C(O)c1ccc2c(c1)nc(N1CCC3(CCCCC3)CC1)c1cccn12 [I-30, 4-(3-Azaspiro[5.5]undecan-3-yl)pyrrolo[1,2-a]quinoxaline-7-carboxylic acid]
The GI50 of the first is higher: 5 to 10 µM for the first, 1 to 5 µM for the second.

First: O=C(O)c1ccc2c(c1)nc(N1CCC3(CCCOC3)CC1)c1cccn12 [I-26, 4-(2-Oxa-9-azaspiro[5.5]undecan-9-yl)pyrrolo[1,2-a]quinoxaline-7-carboxylic acid]
Second: O=C(O)c1ccc2c(c1)nc(N1CCC3(CCOCC3)CC1)c1cccn12 [I-27, 4-(3-Oxa-9-azaspiro [5.5]undecan-9-yl) pyrrolo[1,2-a] quinoxaline-7-carboxylic acid]
The GI50 of the first is higher: 5 to 10 µM for the first, 1 to 5 µM for the second.

From patent US12655150B2 (Cedilla Therapeutics, Inc., priority 2021, dated 2026)
